Data taken from patent publication US20110144345A1, “SULFOXYIMINO-SUBSTITUTED BENZOYL DERIVATIVE AND HERBICIDE” (NIPPON SODA CO., LTD., priority 2008, published 2011).

Assays:
Scirpus juncoides = test: Paddy pot test, herbicidal effect on Scirpus juncoides; format: in vivo; parameters: scale not given here; settings: Screening, 63 g/ha, examined after 3 weeks
Description: (§1) Plastic pots having an area of 100 cm^2 and a depth of 10 cm were filled with paddy soil which is puddled by adding water, and seeds of Echinochloa crus-galli and Scirpus juncoides were planted in the pots. After seeding, rice plants at the 2.5-leaf stage were transplanted and the pots were filled with water. The rice plants were grown in a greenhouse. […] The herbicidal effects and harmful effects on the rice plants were examined after 3 weeks. Herbicidal effects were examined according to the examination criteria described below and were represented by the herbicidal index. [table] […] [formula]

Echinochloa crus-galli = test: Paddy pot test, herbicidal effect on Echinochloa crus-galli; format: in vivo; parameters: scale not given here; settings: Screening, 63 g/ha, applied at 1.5-leaf stage, examined after 3 weeks
Description: as §1

rice plants = test: Paddy pot test, harmful effects on transplanted rice plants; format: in vivo; parameters: scale not given here; settings: Screening, 63 g/ha, applied at Echinochloa crus-galli 1.5-leaf stage, examined after 3 weeks
Description: as §1

| Compound | Scripus juncoides (herbicidal index) (Scirpus juncoides) | Echinochloa crus-galli (herbicidal index) (Echinochloa crus-galli) | Rice (harmful effects on the rice plants, index) (rice plants) | melting point [°C] |
| --- | --- | --- | --- | --- |
| COc1ccc(C(=O)c2cnn(C)c2OCc2ccc3ccccc3c2)c(Cl)c1N=S(C)(=O)c1ccccc1 (stereo not shown) [Example 122] | 6 | 10 | 0 | – |
| COc1ccc(C(=O)C2=C(O)CCCC2=O)c(Cl)c1N=S(C)(=O)Cc1ccccc1 (stereo not shown) [Example 120] | 5 | 8 | 0 | – |
| COC(=O)c1ccc(C(=O)c2c(C3CC3)nn(C)c2O)cc1N=S1(=O)CCCCC1 [Example 102] | 6 | 6 | 0 | – |
| COc1ccc(C(=O)c2cnn(C)c2OCc2ccc3ccccc3c2)c(OC)c1N=S1(=O)CCOCC1 [Example 134] | 8 | 5 | 0 | – |
| Cc1ccc(C(=O)C2=C(O)CCCC2=O)c(C)c1N=S1(=O)CCCCC1 [Example 110] | 8 | 10 | 0 | – |
| COc1ccc(C(=O)c2cnn(C)c2OCc2ccc3ccccc3c2)c(Cl)c1N=S1(=O)CCCC1 [Example 129] | 8 | 7 | 0 | – |
| COc1ccc(C(=O)c2cnn(C)c2OCc2ccc3ccccc3c2)c(Cl)c1N=S(C)(C)=O [Example 151] | 5 | 6 | 0 | – |
| CCCS(=O)(CCC)=Nc1c(OC)ccc(C(=O)c2cnn(C)c2O)c1Cl [Example 145] | 8 | 10 | 0 | – |
| CCS(=O)(CC)=Nc1c(OC)ccc(C(=O)c2cnn(C)c2OCc2ccc3ccccc3c2)c1Cl [Example 248] | 8 | 5 | 0 | – |
| COC(=O)c1ccc(C(=O)c2cn(C(=O)SC)n(C)c2=O)c(Cl)c1N=S1(=O)CCCCC1 [Example 153] | 8 | 7 | 0 | – |
| COc1ccc(C(=O)c2cnn(C)c2O)c(Cl)c1N=S(C)(=O)Cc1ccccc1 (stereo not shown) [Example 119] | 8 | 10 | 0 | – |
| Cn1ncc(C(=O)c2ccc(OC(F)F)c(N=S3(=O)CCCCC3)c2Cl)c1OCc1ccc2ccccc2c1 [Example 182] | 7 | 10 | 0 | – |
| COc1ccc(C(=O)c2cnn(C)c2OCc2ccccc2)c(Cl)c1N=S1(=O)CCCCC1 [Example 107] | 7 | 7 | 0 | – |
| Cn1ncc(C(=O)c2ccc(CO)c(N=S3(=O)CCCCC3)c2Cl)c1O [Example 117] | 8 | 5 | 0 | – |
| COC(=O)Oc1c(C(=O)c2ccc(OC)c(N=S3(=O)CCCCC3)c2Cl)cnn1C [Example 104] | 9 | 10 | 0 | – |
| CC(C)c1ccc(C(=O)C2=C(O)CCCC2=O)c(Cl)c1N=S1(=O)CCCCC1 [Example 209] | 6 | 7 | 0 | – |
| COc1ccc(C(=O)c2cnn(C)c2OC(=O)c2ccccc2)c(Cl)c1N=S1(=O)CCCCC1 [Example 138] | 8 | 10 | 0 | – |
| Cc1ccc(C(=O)c2c(C)nn(C)c2OCc2ccc3ccccc3c2)c(C)c1N=S1(=O)CCCCC1 [Example 111] | 8 | 6 | 0 | – |
| COC(=O)c1ccc(C(=O)C(C#N)C(=O)C2CC2)c(Cl)c1N=S1(=O)CCCCC1 (stereo not shown) [Example 165] | 8 | 5 | 0 | – |
| COC(=O)c1ccc(C(=O)c2cnn(C)c2OC(=O)SC(C)C)c(Cl)c1N=S1(=O)CCCCC1 [Example 201] | 7 | 5 | 0 | – |
| COc1ccc(C(=O)c2cnn(C)c2OCc2ccc3ccccc3c2)c(F)c1N=S1(=O)CCCCC1 [Example 113] | 6 | 7 | 0 | – |
| C#Cc1ccc(C(=O)C2=C(O)CCCC2=O)c(Cl)c1N=S1(=O)CCCCC1 [Example 173] | 7 | 5 | 0 | – |

| Compound | Scripus juncoides (herbicidal index) (Scirpus juncoides) | Echinochloa crus-galli (herbicidal index) (Echinochloa crus-galli) | Rice (harmful effects on the rice plants, index) (rice plants) | melting point [°C] |
| --- | --- | --- | --- | --- |
| CSC(=O)Oc1c(C(=O)c2ccc(OC(F)F)c(N=S3(=O)CCCCC3)c2Cl)cnn1C [Example 185] | 7 | 10 | 0 | – |
| COc1ccc(C(=O)c2cnn(C)c2OC(=O)SC)c(OC)c1N=S1(=O)CCCCC1 [Example 183] | 6 | 7 | 0 | – |
| C=C(C)c1ccc(C(=O)c2cnn(C)c2O)c(Cl)c1N=S1(=O)CCCCC1 [Example 204] | 7 | 5 | 0 | – |
| COc1ccc(C(=O)c2cnn(C)c2OS(=O)(=O)c2ccc(C)cc2)c(Cl)c1N=S1(=O)CCCCC1 [Example 106] | 8 | 10 | 0 | – |
| CCc1ccc(C(=O)c2cnn(C)c2O)c(Cl)c1N=S1(=O)CCCCC1 [Example 188] | 7 | 10 | 1 | – |
| COc1ccc(C(=O)c2cnn(C(C)(C)C)c2O)c(Cl)c1N=S1(=O)CCCCC1 [Example 88] | – | – | – | 200 to 202 |
| COc1ccc(C(=O)C2=C(O)CCCC2=O)c(OC)c1N=S1(=O)CCCCC1 [Example 92] | – | – | – | 129 to 131 |
| CC(=O)c1ccc(C(=O)c2cnn(C)c2O)c(Cl)c1N=S1(=O)CCCCC1 [Example 255] | – | – | – | 100 to 104 |
| CCOc1ccc(C(=O)c2cnn(C)c2O)c(OC)c1N=S1(=O)CCCCC1 [Example 175] | – | – | – | 109 to 111 |
| COc1ccc(C(=O)c2cnn(C)c2O)c([N+](=O)[O-])c1N=S1(=O)CCCCC1 [Example 76] | – | – | – | 179 to 181 |
| CCn1ncc(C(=O)c2ccc(C(=O)OC)c(N=S3(=O)CCCCC3)c2Cl)c1O [Example 30] | – | – | – | 201 to 203 |
| Cn1ncc(C(=O)c2ccc(OC[S+](C)[O-])c(N=S3(=O)CCCCC3)c2Cl)c1O (stereo not shown) [Example 245] | – | – | – | 95 to 97 |
| COCCOCOc1ccc(C(=O)c2cnn(C)c2O)c(Cl)c1N=S1(=O)CCCCC1 [Example 259] | – | – | – | 77 to 79 |
| Cn1ncc(C(=O)c2ccc(-c3cccs3)c(N=S3(=O)CCCCC3)c2Cl)c1O [Example 214] | – | – | – | 158 to 164 |
| COc1ccc(C(=O)c2cnn(C)c2O)c(Cl)c1N=S(C)(=O)c1cccs1 (stereo not shown) [Example 192] | – | – | – | 90 to 92 |
| Cn1ncc(C(=O)c2cccc(N=S3(=O)CCCCC3)c2Cl)c1O [Example 39] | – | – | – | 177 to 179 |
| CCCOc1ccc(C(=O)c2cnn(C)c2O)c(Cl)c1N=S1(=O)CCCCC1 [Example 254] | – | – | – | 85 to 87 |
| COCCOc1ccc(C(=O)c2cnn(C)c2O)c(Cl)c1N=S1(=O)CCCCC1 [Example 212] | – | – | – | 153 to 155 |
| CSC(=O)Oc1c(C(=O)c2ccc(OCCC3OCCO3)c(N=S3(=O)CCCCC3)c2Cl)cnn1C [Example 200] | – | – | – | 159 to 161 |
| COC(=O)c1ccc(C(=O)c2cnn(C)c2O)c(Cl)c1N=S1(=O)CCOCC1 [Example 25] | – | – | – | 147 to 149 |
| Cn1ncc(C(=O)c2ccc(OCS(C)(=O)=O)c(N=S3(=O)CCCCC3)c2Cl)c1O [Example 241] | – | – | – | 104 to 106 |
